Experimental findings from patent publication US4843077A, “Isoquinoline derivatives having renal vasodilating properties and/or cardiotonic properties and/or phosphodiesterase inhibiting properties” (Ortho Pharmaceutical Corporation, priority 1987, dated 1989) are described below.

Read-outs that look alike come from different tables or passages of the source.

In experiment [1] the target is phosphodiesterase fraction III. As to the kind of experiment: Inhibition of phosphodiesterase fraction III activity. Type of experiment: biochemical. The note with it: cyclic AMP substrate 0.01-1.0 micromolar, pH 7.4, fraction III enzyme from canine heart.
Experiment [2] has as its system renal vasculature. Description: Renal vasodilating activity in anesthetized dogs. Type of experiment: in vivo, adult mongrel dogs. Particulars: Canis lupus familiaris. Here is the method:
The following procedure is a variation of the assay described in that report.
Adult mongrel dogs were anesthetized and surgically prepared for electromagnetic measurement of renal artery blood flow. A carotid artery was cannulated for measuring arterial blood pressure and drugs were administered intravenously or intraarterially (via the renal artery). Heart rate was monitored with a cardiotachometer. Renal vascular resistance was calcualted as the ratio of mean arterial blood pressure to renal artery blood flow. Dopamine was infused intravenously at 3 μg/kg/min for ten minutes (at an infusion rate of about 1 ml/min) to determine responsiveness of each dog to renal dopamine receptor stimulation. Cumulative dose-response data were obtained by infusing a compound of this invention at progressively increasing (usually three-fold) infusion rates, each dose being infused for five minutes. The maximum percent change from pre-drug control in renal artery blood flow (or in renal vascular resistance) was determined for each infusion dose.

Experiment [3] concerns cardiac muscle. Description: Acute in vivo cardiotonic activity in anesthetized dogs. More on the design: species or system adult mongrel dogs. The note with it: anesthetized dog, relative to control. On the procedure: The acute in vivo cardiotonic activity of compounds prepared according to the present invention was determined according to a modification of the procedure described by Alousi et al., Circ. Res., 45, 666 (1979).
In particular, adult mongrel dogs were anesthetized with sodium pentobarbital and were artificially respired. Arterial pressure was monitored via a femoral artery, and the pulse pressure was used to trigger a cardiotachometer for heart rate. Left ventricular pressure was determined with a Millar catheter, and dP/dT (the change in ventricular pressure with time) was derived. Cardiac output was determined by measuring ascending aortic blood flow with an electromagnetic flow probe, and myocardial contractile foorce was measured with a Walton Brodie strain gauge sutured to the right ventricle. Lead II EKG was also recorded.
A standard dose (10 μg/kg/min) of dopamine was administered to assess myocardial responsiveness.
Compounds of the invention were administered by intravenous infusion and the effects on cardiovascular parameters were determined.
Dose related effects of the test compound on heart rate (HR), maximum change in left ventricular pressure with time (dP/dT), percent change in cardiac force (CF) and the change in mean arterial blood pressure (MABP) were compared to pretreatment control values and expressed as a percent change.

[4] abbreviates: iv, read-out: RVR, percent change in renal vascular resistance.
[5] abbreviates: anesthetized dog, dose 1.2 mpk iv, relative to control, read-out: HR, percent change in heart rate.
[6] abbreviates: anesthetized dog, dose 1.2 mpk iv, relative to control, read-out: MABP, percent change in mean arterial blood pressure.
Where [7] appears, read: anesthetized dog, dose 1.2 mpk iv, relative to control, read-out: RBF, percent change in renal blood flow.
The mark [8] stands for this setting: anesthetized dog, dose 6.2 mpk iv, relative to control, read-out: HR, percent change in heart rate.
Setting [9] is: anesthetized dog, dose 6.2 mpk iv, relative to control, read-out: RBF, percent change in renal blood flow.
Where [10] appears, read: anesthetized dog, dose 1.2 mpk iv, relative to control, read-out: RVR, percent change in renal vascular resistance.
Where [11] appears, read: anesthetized dog, dose 6.2 mpk iv, relative to control, read-out: MABP, percent change in mean arterial blood pressure.
[12] abbreviates: iv, read-out: HR, percent change in heart rate.
Setting [13] is: total dose 1.938 mpk iv infusion.
[14] abbreviates: total dose 1.875 mpk iv infusion.

In the case of `C=CCNC(=O)Nc1c(N(C)C)nc(C)c2cc(OC)c(OC)cc12` [Cmpd 30], in experiment [1], the IC50 (usually the concentration at which inhibition is half-maximal) was determined as 280 µM. In addition, the change in vivo at 1.2 mg/kg was -9% in experiment [2] (setting [4]), 3% in experiment [2] (setting [5]), 1% in experiment [2] (setting [6]) and 12% in experiment [2] (setting [7]).

For `COc1cc2c(C)nc(N(C)C)c(N)c2cc1OC` [Cmpd 26, 4-Amino-6,7-dimethoxy-3-(N,N-dimethyl)amino-1-methylisoquinoline], in experiment [1], half-maximal inhibition (IC50) was put at 14 µM.

In experiment [1], `CCCCSc1nc(C)c2cc(OC)c(OC)cc2c1[N+](=O)[O-]` [Cmpd 23, 3-(n-Butylthio)-6,7-dimethoxy-1-methyl-4-nitroisoquinoline] had a concentration for half-maximal inhibition (IC50) of 280 µM. Besides, the change in vivo at 6.2 mg/kg in experiment [2] (iv, read-out: MABP, percent change in mean arterial blood pressure) is -1%; in experiment [2] (setting [4]) it was -15%; in experiment [2] (setting [8]) it was 4%; in experiment [2] (setting [9]), 16%.

Turning to `COc1cc2c(C)nc(N(C)C)c([N+](=O)[O-])c2cc1OC` [Cmpd 13, 6,7-Dimethoxy-1-methyl-3-(N,N-dimethyl)amino-4-nitroisoquinoline], in experiment [1], the IC50 was 10 µM. Further, the change in vivo at 1.2 mg/kg was 17% in experiment [2] (setting [5]), 16% in experiment [2] (setting [6]), 60% in experiment [2] (setting [7]) and -23% in experiment [2] (setting [10]).

`COc1cc2c(C)nc(N(C)c3ccccc3)c([N+](=O)[O-])c2cc1OC` [Cmpd 21] returned an IC50 in experiment [1] of 220 µM.

`COc1cc2c(C)nc(N3CCN(c4ccccc4)CC3)c([N+](=O)[O-])c2cc1OC` [Cmpd 19] showed an IC50 in experiment [1] of 150 µM. The change in vivo at 6.2 mg/kg in experiment [2] (setting [4]) was -18%; in experiment [2] (setting [8]), -5%; in experiment [2] (setting [11]), 6%; in experiment [2] (setting [9]), 30%.

Turning to `CCCCNC(=O)Nc1c(Nc2ccccc2)nc(C)c2cc(OC)c(OC)cc12` [Cmpd 27], the change in vivo at 1.2 mg/kg in experiment [2] (setting [12]) was -6%; in experiment [2] (setting [6]) it was 8%; in experiment [2] (setting [7]) it was 7%; in experiment [2] (setting [10]), 1%.

With `COc1cc2c(C)nc(NCCN3CCN(c4ccccc4OC)CC3)c([N+](=O)[O-])c2cc1OC` [Cmpd 8], the change in vivo at 0.3 mg/kg in experiment [2] (setting [12]) is -6%; in experiment [2] (anesthetized dog, dose 0.3 mpk iv, relative to control, read-out: MABP, percent change in mean arterial blood pressure) it was -20%; in experiment [2] (anesthetized dog, dose 0.3 mpk iv, relative to control, read-out: RBF, percent change in renal blood flow), 10%; in experiment [2] (anesthetized dog, dose 0.3 mpk iv, relative to control, read-out: RVR, percent change in renal vascular resistance), -27%.

On to `CCN(CC)c1nc(C)c2cc(OC)c(OC)cc2c1[N+](=O)[O-]` [Cmpd 15], for which the change in vivo at 6.2 mg/kg in experiment [2] (setting [8]) is 4%; in experiment [2] (setting [11]), 0%; in experiment [2] (setting [9]) it was 8%; in experiment [2] (anesthetized dog, dose 6.2 mpk iv, relative to control, read-out: RVR, percent change in renal vascular resistance), -8%.

Take `CCN(C)c1nc(C)c2cc(OC)c(OC)cc2c1[N+](=O)[O-]` [Cmpd 14]: in experiment [3] (setting [13]), the “CF, percent change in cardiac force” value was found to be 21 percent change; the “HR, percent change in heart rate” value was 8 percent change; the “MABP, percent change in mean arterial blood pressure” value (shortened to “MABP, percent change”) stood at 6 percent change; the “dP/dt, maximum percent change in left ventricular pressure with time” value (from here on “dP/dt, maximum percent change”) turned out to be 20 percent change. In experiment [1], this molecule displayed an IC50 of 25 µM.

`CCN(CCN(C)C)c1nc(C)c2cc(OC)c(OC)cc2c1[N+](=O)[O-]` [Cmpd 16]: in experiment [1], the IC50 came out at 300 µM.

For `CCCCNc1nc(C)c2cc(OC)c(OC)cc2c1[N+](=O)[O-]` [Cmpd 3, 3-(n-Butylamino)-6,7-dimethoxy-1-methyl-4-nitroisoquinoline], in experiment [1], the IC50 is 250 µM.

Turning to `COc1cc2c(C)nc(NC3CCN(Cc4ccccc4)CC3)c([N+](=O)[O-])c2cc1OC` [Cmpd 11], the IC50 in experiment [1] came to 120 µM. Moreover, the change in vivo at 6.2 mg/kg was -28% in experiment [2] (setting [4]), -16% in experiment [2] (setting [8]), -13% in experiment [2] (setting [11]) and 28% in experiment [2] (setting [9]).

The molecule `CNc1nc(C)c2cc(OC)c(OC)cc2c1[N+](=O)[O-]` [Cmpd 2] gave an IC50 in experiment [1] of 265 µM.

In the case of `COc1cc2c(C)nc(NCc3ccccc3)c([N+](=O)[O-])c2cc1OC` [Cmpd 4], the change in vivo at 6.2 mg/kg is -14% in experiment [2] (setting [4]), -15% in experiment [2] (setting [8]), -6% in experiment [2] (setting [11]) and 9% in experiment [2] (setting [9]).

The molecule `COc1cc2c(C)nc(Nc3ccccc3)c([N+](=O)[O-])c2cc1OC` [Cmpd 12] showed an IC50 in experiment [1] of 250 µM. In addition, the change in vivo at 6.2 mg/kg in experiment [2] (setting [4]) was -32%; in experiment [2] (setting [8]), 2%; in experiment [2] (setting [11]), -3%; in experiment [2] (setting [9]) it was 42%.

For the molecule `CCN(CC)CCNc1nc(C)c2cc(OC)c(OC)cc2c1[N+](=O)[O-]` [Cmpd 6], in experiment [3] (setting [14]), the “CF, percent change in cardiac force” value is 40 percent change; the “HR, percent change in heart rate” value is -6 percent change; the “MABP, percent change” value worked out at 4 percent change; the “dP/dt, maximum percent change” value is on record as 52 percent change.

In the case of `CCCCNC(=O)Nc1c(N(C)C)nc(C)c2cc(OC)c(OC)cc12` [Cmpd 28], in experiment [3] (setting [14]), the “CF, percent change in cardiac force” value was 20 percent change; the “HR, percent change in heart rate” value is on record as 2 percent change; the “MABP, percent change” value was 2 percent change; the “dP/dt, maximum percent change” value was 16 percent change. In experiment [1], this molecule yielded an IC50 of 300 µM.

Regarding `COc1cc2c(C)nc(Nc3ccccc3)c(N)c2cc1OC` [Cmpd 25, 4-amino-6,7-dimethoxy-1-methyl-3-[(N-phenyl)amino]isoquinoline], in experiment [1], the IC50 is 68 µM.
